Results taken from PMC2410273, “Pharmacokinetic behaviour of the chemoprotectants BNP7787 and mesna after an i.v. bolus injection in rats” (British Journal of Cancer, 2004).
Where two headings read alike, the source gives them in different places.

Experiments:
[1] = Pharmacokinetics and tissue distribution of BNP7787 and mesna after i.v. bolus of BNP7787 or mesna in WARD tumour-bearing rats; type: in vivo, Fischer rats; conditions: for AUC, fold lower after BNP7787 than after mesna administration / AUC after BNP7787 administration compared with after mesna administration: each 1000 mg kg^−1 i.v.; for Kp: 1000 mg/kg
Description: The protocol was approved by the ethics committee for animal experiments of the Vrije Universiteit medical center in Amsterdam, The Netherlands. This committee strictly adheres to the standards required by the UKCCCR for the welfare of animals in neoplasia ([Workman et al, 1998]). Female Fischer rats (144–171 g) were obtained from Harlan (Indianapolis, USA) and were implanted subcutaneously in both flanks with fragments (2–3 mm diameter) of the WARD colorectal tumour ([Cao et al, 1994]). The pharmacokinetic study started at the time the tumours had reached a mean size of approximately 600 mm^3 (range 250–900 mm^3).
Tumour-bearing rats were treated with 1000 mg kg^−1 BNP7787 i.v. or 1000 mg kg^−1 mesna i.v. injected in the tail vein. Approximately 5 min before sample collection, the rats were anaesthetised by i.p. injection with 0.1 ml of a mixture of 75 mg ml^−1 ketamine plus 5 mg ml^−1 xylazine per 100 g weight. Blood was obtained by heart puncture at 0, 5, 15, 30, 45, 60, 90 and 150 min after i.v. administration of BNP7787 or mesna. Thereafter, the kidney, liver and tumour were removed by surgical dissection. In addition, at time points 0 and 30 min, skeletal muscle attached to the thighbone was also collected. At each time point three rats were killed.
Immediately after collection, the blood samples, which were collected in cooled EDTA-containing tubes (potassium-EDTA 1.6 mg EDTA ml^−1 blood; Sarstedt, Germany), were centrifuged at 4°C for 10 min at 4000 g. Plasma was separated and immediately deproteinised by adding one volume of sulphuric acid (0.33 M) and one volume of sodium hexametaphosphate (5 g/100 ml). After vortexing and centrifugation for 2 min at 12 000 g, the supernatant was stored in aliquots at −80°C until analysis. One volume of RBCs was washed with 1 volume of cold phosphate-buffered saline (PBS) of pH 7.4 containing sodium phosphate (10 mM) and NaCl (140 mM; Hospital Pharmacy, VUmc, Amsterdam, The Netherlands). This mixture was centrifuged for 2 min, 12 000 g at 4°C. After removing the PBS, the remaining RBCs were stored in liquid nitrogen until further processing.
The kidney, liver, tumour and skeletal muscle were washed with cold PBS before storage in liquid nitrogen. After collection of all the samples at the different time points, tissue homogenates of kidney, liver, tumour and skeletal muscle were prepared by pulverisation using a Braun Micro-dismembrator (Salm and Kipp; Breukelen, The Netherlands) according to the method described by [Peters et al (1986)]. An appropriate volume of aqueous EDTA (1 g l^−1) was added to the RBC and tissue homogenates to obtain a concentration of 100 mg tissue (wet weight) per ml. After sonification (10 min) and vortexing (10 min), the samples were subsequently deproteinised by adding 1 volume of cold sulphuric acid (0.33 M) and 1 volume of cold sodium hexametaphosphate (5 g/100 ml). After thorough vortexing and centrifugation (2 min at 8500 g at 4°C), the supernatants were stored in aliquots at −80° until analysis.
BNP7787 and mesna concentrations were determined selectively in one run using micro-HPLC with a dual electrochemical detector (dual ECD) ([Verschraagen et al, 2003b]). Briefly, citrate-NaOH buffer (40 μl of a mixture of 1 ml 5.0 M sodium hydroxide and 4 ml 0.5 M tri-sodium citrate buffer, pH 3.0) was added to 200 μl of deproteinised plasma, RBC or tissue sample, and the sample was injected into the micro-HPLC system which consisted of a Phenomenex C18 guard column (10 μm, 4 × 2.0 mm) and a Phenomenex Prodigy C18 ODS-3 column (5 μm, 100 × 1.0 mm; Bester, Amstelveen, The Netherlands).

[2] = parameters: method as in Boven et al, 2002; conditions: nude mice; after BNP7787 administration; ref Boven et al, 2002; cited from earlier work
[3] = system: antitumour activity of cisplatin; parameters: method as in Hausheer et al, 1998; conditions: tumour-bearing rats; given preceding cisplatin; ref Hausheer et al, 1998; cited from earlier work
[4] = system: antitumour activity of cisplatin; parameters: method as in Boven et al, 2002; conditions: tumour-bearing nude mice; given preceding cisplatin; ref Boven et al, 2002; cited from earlier work

O=S(=O)(O)CCS [mesna, sodium 2-mercapto ethane sulphonate]
mean concentration (±s.d.) in skeletal muscle ([1]; 30 min after 1000 mg kg^−1 BNP7787 i.v.): 355.1 ± 113.0 nmol/g | mean concentration (±s.d.) in skeletal muscle ([1]; 30 min after 1000 mg kg^−1 mesna i.v.): 665.1 ± 209.1 nmol/g | AUC, fold lower after BNP7787 than after mesna administration ([1]; RBC, P<0.01): 6.2 fold | time detectable ([1]; after 1000 mg kg^−1 BNP7787 i.v., RBC): up to 90 min | time detectable ([1]; after 1000 mg kg^−1 BNP7787 i.v., kidney): at least 150 min | time detectable ([1]; after 1000 mg kg^−1 BNP7787 i.v., liver): up to 90 min | time detectable ([1]; after 1000 mg kg^−1 BNP7787 i.v., plasma): up to 90 min | time detectable ([1]; after 1000 mg kg^−1 BNP7787 i.v., tumour): at least 150 min | time detectable ([1]; after 1000 mg kg^−1 mesna i.v., RBC): at least 150 min | time detectable ([1]; after 1000 mg kg^−1 mesna i.v., kidney): at least 150 min | time detectable ([1]; after 1000 mg kg^−1 mesna i.v., liver): at least 150 min | time detectable ([1]; after 1000 mg kg^−1 mesna i.v., plasma): at least 150 min | AUC of mesna relative to AUC of BNP7787 ([1]; after 1000 mg kg^−1 mesna i.v., plasma and all tissues sampled): at least seven-fold higher | time detectable ([1]; after 1000 mg kg^−1 mesna i.v., tumour): at least 150 min | AUC^5−60 in plasma, fold higher in rats than in nude mice ([1]; after equivalent dose of 1000 mg kg^−1 BNP7787, mouse data ref Boven et al, 2002): approximately 5.2 fold | AUC of mesna in tumour relative to AUC of mesna in plasma ([1]; after mesna administration): at least three-fold lower | AUC, fold lower than the corresponding value in kidney ([1]; all other sampled tissue compartments, after either BNP7787 or mesna): at least 5.5 fold | Kp ([1]; female, Fischer, rat, all tissue compartments other than kidney / plasma, iv, after 1000 mg kg^−1 mesna i.v., all tissue compartments other than kidney, read-out: tissue–plasma AUC ratio): < 0.3 | Tmax ([1]; female, Fischer, rat, iv, after 1000 mg kg^−1 BNP7787 i.v., liver, read-out: time of maximal concentration in liver (converted)): 5 min | Kp ([1]; female, Fischer, rat, kidney / plasma, iv, after 1000 mg kg^−1 BNP7787 i.v., read-out: kidney–plasma AUC ratio): 4.5 | Kp ([1]; female, Fischer, rat, kidney / plasma, iv, after 1000 mg kg^−1 mesna i.v., read-out: kidney–plasma AUC ratio): 1.7 | Kp ([1]; female, Fischer, rat, liver / plasma, iv, after 1000 mg kg^−1 BNP7787 i.v., read-out: liver–plasma AUC ratio): 0.5 | Kp ([1]; female, Fischer, rat, red blood cells / plasma, iv, after 1000 mg kg^−1 BNP7787 i.v., read-out: RBC–plasma AUC ratio): 0.1 | Kp ([1]; female, Fischer, rat, tumour / plasma, iv, after 1000 mg kg^−1 BNP7787 i.v., read-out: tumour–plasma AUC ratio): 0.7 | AUC, fold lower after BNP7787 than after mesna administration ([1]; kidney, P<0.01): 1.9 fold | AUC after BNP7787 administration compared with after mesna administration ([1]; liver): similar | AUC after BNP7787 administration compared with after mesna administration ([1]; plasma, P<0.01): five-fold lower | AUC of mesna in plasma as % of the AUC of BNP7787 ([1]; rats, after BNP7787 administration): approximately 50% | AUC, fold lower after BNP7787 than after mesna administration ([1]; tumour, not statistically significant): 2.1 fold | AUC of mesna in plasma as % of the AUC of BNP7787 [2]: approximately 24% | effect on antitumour activity of cisplatin [3]: can reduce the number of complete and partial tumour remissions | effect on antitumour activity of cisplatin [4]: reduce the specific growth delay
